Source: the NIST ThermoML archive (doi:10.1021/je0503857)
Numbers after ± are expanded uncertainties.

What was measured:
[1] = molar heat capacity at constant pressure; details: 298.15 K; 101.33 kPa; Crystal; Small sample (50 mg) DSC
[2] = for vapor or sublimation pressure: Liquid, Gas chromatography; for Normal melting temperature: Crystal, DTA
[3] = Molar enthalpy of transition or fusion; details: DSC

SMILES	molar heat capacity at constant pressure [1]	vapor or sublimation pressure ([2]; 298.15 K)	vapor or sublimation pressure ([2]; 300 K)	vapor or sublimation pressure ([2]; 330 K)	vapor or sublimation pressure ([2]; 360 K)	vapor or sublimation pressure ([2]; 390 K)	vapor or sublimation pressure ([2]; 420 K)	vapor or sublimation pressure ([2]; 450 K)	vapor or sublimation pressure ([2]; 480 K)	vapor or sublimation pressure ([2]; 510 K)	Normal melting temperature [2]	Molar enthalpy of transition or fusion ([3]; Crystal)	Molar enthalpy of transition or fusion ([3]; Crystal 2)
CCCCCCCCCCCCCCCCCCCCCCCCCCO [1-hexacosanol]	732.6 ± 15 J/K/mol	6.401e-11 kPa	9.145e-11 kPa	1.78e-08 ± 1.2e-08 kPa	1.364e-06 ± 1.5e-07 kPa	4.614e-05 ± 4.6e-06 kPa	0.0007898 ± 7.9e-05 kPa	0.007756 ± 0.00078 kPa	0.0486 ± 0.0049 kPa	0.212 ± 0.021 kPa	80.0 ± 0.5 °C	24.8 ± 0.645 kcal/mol	–
CCCCCCCCCCCCCCCCCCO [1-octadecanol]	517.4 ± 10 J/K/mol	–	–	–	–	–	–	–	–	–	52.5 ± 5 °C	–	16.6 ± 0.43 kcal/mol
CCCCCCCCCCCCCCCCCCCCCCO [1-docosanol]	625 ± 13 J/K/mol	–	–	5.89e-07 ± 7.1e-08 kPa	2.687e-05 ± 2.7e-06 kPa	0.000588 ± 5.9e-05 kPa	0.007063 ± 0.00071 kPa	0.0523 ± 0.0052 kPa	0.2627 ± 0.026 kPa	0.9664 ± 0.097 kPa	71.4 ± 0.5 °C	19.8 ± 0.526 kcal/mol	–
CCCCCCCCCCCCCC(O)CCC (configuration not stated) [4-heptadecanol]	472.6 ± 9.5 J/K/mol	–	–	–	–	–	–	–	–	–	38.4 ± 0.5 °C	8.53 ± 0.239 kcal/mol	–
CCCCCCCCCCCCCCCCCO [1-heptadecanol]	490.5 ± 9.8 J/K/mol	6.86e-07 ± 7.9e-08 kPa	9.02e-07 ± 1e-07 kPa	4.724e-05 ± 4.8e-06 kPa	0.001125 ± 0.00011 kPa	0.01426 ± 0.0014 kPa	0.1098 ± 0.011 kPa	0.571 ± 0.057 kPa	2.174 ± 0.22 kPa	6.457 ± 0.65 kPa	52.2 ± 0.5 °C	–	15.2 ± 0.406 kcal/mol
CCCCCCCCCCCCCCCCCCCCO [1-eicosanol]	571.2 ± 11 J/K/mol	3.215e-08 ± 1.3e-08 kPa	4.345e-08 ± 1.4e-08 kPa	3.509e-06 ± 3.6e-07 kPa	0.0001228 ± 1.2e-05 kPa	0.002151 ± 0.00021 kPa	0.02156 ± 0.0022 kPa	0.1382 ± 0.014 kPa	0.6201 ± 0.062 kPa	2.091 ± 0.21 kPa	64 ± 1 °C	–	18.7 ± 0.502 kcal/mol

Now from value to molecule:

molar heat capacity at constant pressure [1]	vapor or sublimation pressure ([2]; 298.15 K)	vapor or sublimation pressure ([2]; 300 K)	vapor or sublimation pressure ([2]; 330 K)	vapor or sublimation pressure ([2]; 360 K)	vapor or sublimation pressure ([2]; 390 K)	vapor or sublimation pressure ([2]; 420 K)	vapor or sublimation pressure ([2]; 450 K)	vapor or sublimation pressure ([2]; 480 K)	vapor or sublimation pressure ([2]; 510 K)	Normal melting temperature [2]	Molar enthalpy of transition or fusion ([3]; Crystal)	Molar enthalpy of transition or fusion ([3]; Crystal 2)	SMILES
–	7.557e-11 kPa	1.065e-10 kPa	1.71e-08 ± 1.2e-08 kPa	1.132e-06 ± 1.2e-07 kPa	3.397e-05 ± 3.4e-06 kPa	0.0005237 ± 5.3e-05 kPa	0.004678 ± 0.00047 kPa	0.02685 ± 0.0027 kPa	0.1078 ± 0.011 kPa	–	–	–	CC(C)CCC[C@@H](C)[C@H]1CC[C@H]2[C@@H]3CC=C4C[C@@H](O)CC[C@]4(C)[C@H]3CC[C@]12C [.DELTA.5-cholesten-3β-ol]
472.6 ± 9.5 J/K/mol	1.959e-06 ± 2.1e-07 kPa	2.552e-06 ± 2.7e-07 kPa	0.0001153 ± 1.2e-05 kPa	0.002406 ± 0.00024 kPa	0.0273 ± 0.0027 kPa	0.192 ± 0.019 kPa	0.9282 ± 0.093 kPa	3.337 ± 0.33 kPa	9.481 ± 0.95 kPa	41.2 ± 0.5 °C	6.88 ± 0.215 kcal/mol	–	CCCCCCCCCCC(O)CCCCCC (configuration not stated) [7-heptadecanol]
472.6 ± 9.5 J/K/mol	1.895e-06 ± 2e-07 kPa	2.471e-06 ± 2.6e-07 kPa	0.0001127 ± 1.1e-05 kPa	0.002368 ± 0.00024 kPa	0.02704 ± 0.0027 kPa	0.1913 ± 0.019 kPa	0.929 ± 0.093 kPa	3.354 ± 0.34 kPa	9.568 ± 0.96 kPa	57.1 ± 0.5 °C	10.3 ± 0.287 kcal/mol	–	CCCCCCCCC(O)CCCCCCCC [9-heptadecanol]
472.6 ± 9.5 J/K/mol	1.813e-06 ± 1.9e-07 kPa	2.363e-06 ± 2.5e-07 kPa	0.0001082 ± 1.1e-05 kPa	0.002283 ± 0.00023 kPa	0.02614 ± 0.0026 kPa	0.1853 ± 0.019 kPa	0.901 ± 0.09 kPa	3.255 ± 0.33 kPa	9.287 ± 0.93 kPa	42.7 ± 0.5 °C	11.7 ± 0.311 kcal/mol	–	CCCCCCCCCCCC(O)CCCCC (configuration not stated) [6-heptadecanol]
